Columns and labels:
FAK = biological target: T1, FAK (Homo sapiens, UniProt Q05397); assay: FAK inhibitory assay (Kinase-Glo); assay type: biochemical
T1 construct: human-recombinant full-length FAK
Method: Selected compounds were tested against FAK. In a typical study, human-recombinant full-length FAK was incubated in kinase buffer containing ATP and the substrate for 4 h at room temperature with or without the presence of the corresponding coumpounds. The final concentration of drug as 100, 30, 10, 3 μg/mL. The remaining ATP in solution was then quantified utilizing the Kinase-Glo-luminescence kit (Promega).

[1] = biological target: HER-2 protein (truncated) (Homo sapiens, UniProt P04626); assay: BLI assay (bio-layer interferometry); assay type: binding; conditions: labeled compound, calculated by the Octet Red96 system
Chain of HER-2 protein (truncated) (P04626 676-1245): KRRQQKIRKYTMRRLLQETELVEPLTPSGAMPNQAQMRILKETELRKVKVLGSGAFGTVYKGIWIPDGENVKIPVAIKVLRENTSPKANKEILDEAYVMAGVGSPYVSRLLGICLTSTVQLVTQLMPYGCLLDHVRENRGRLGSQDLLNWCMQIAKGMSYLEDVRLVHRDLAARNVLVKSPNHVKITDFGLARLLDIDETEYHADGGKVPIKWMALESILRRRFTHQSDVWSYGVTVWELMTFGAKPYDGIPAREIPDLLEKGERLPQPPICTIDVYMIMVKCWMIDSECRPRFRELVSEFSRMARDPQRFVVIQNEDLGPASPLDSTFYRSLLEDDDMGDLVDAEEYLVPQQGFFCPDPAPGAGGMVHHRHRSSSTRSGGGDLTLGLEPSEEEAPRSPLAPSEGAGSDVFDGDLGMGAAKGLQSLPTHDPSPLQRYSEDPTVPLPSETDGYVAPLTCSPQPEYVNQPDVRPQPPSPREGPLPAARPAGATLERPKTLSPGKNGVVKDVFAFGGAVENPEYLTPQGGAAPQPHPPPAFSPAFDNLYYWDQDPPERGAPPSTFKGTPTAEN
Method: Bio-layer interferometry (BLI). Binding of compounds (labeled; 0.01, 0.05, 0.1, 0.5 μM) to the HER-2 protein (truncated) was measured and analyzed on an Octet Red96 instrument (ForteBio) at room temperature. The buffer-equilibrated streptavidin biosensors were loaded with 100 μg/mL protein. A duplicate set of sensors was incubated in the buffer without protein for a background binding control. The assay was performed in black 96-well plates (Thermo Fisher Scientific) with the total working volume of 0.21 mL per well. The signal was analyzed using a double reference subtraction protocol to subtract the non-specific binding, background, and signal drift caused by sensor variability. The binding event was quantified by the shift of interference pattern of the light. The result was shown in Fig. 7 and the KD was calculated by the Octet Red96 instrument.

p-HER-2 = assay: Western blot p-HER-2 in MDA-MB-453; assay type: cell-based, human; conditions: increasing C20 levels
Method: After incubation with compound, cells were harvested and washed with PBS, then lysed in lysis buffer (30 mm Tris, pH 7.5, 150 mm NaCl, 1 mm phenylmethylsulfonyl fluoride, 1 mm Na3VO4, 1% Nonidet P-40, 10% glycerol, and phosphatase and protease inhibitors). After centrifugation at 12,000 g for 5 min, the supernatant was collected as total protein. The concentration of the protein was determined by a BCATM protein assay kit (Pierce, Rockford, IL, USA). The protein samples were separated by 10% SDS–PAGE and subsequently electrotransferred onto a polyvinylidene difluoride membrane (Millipore, Bedford, MA, USA). The membrane was blocked with 5% non-fat milk for 2 h at room temperature. The blocked membrane was probed with the indicated primary antibodies overnight at 4 °C, and then incubated with a horse radish peroxidase (HRP)-coupled secondary antibody.

VEGFR-2 = biological target: T2, VEGFR-2 (Homo sapiens, UniProt P35968); assay: VEGFR-2 inhibitory assay; assay type: biochemical
T2 construct: either the phosphorylated or nonphosphorylated form of the VEGFR-2 kinase domain
T2 sequence (P35968 834-1162 limits assumed, species assumed): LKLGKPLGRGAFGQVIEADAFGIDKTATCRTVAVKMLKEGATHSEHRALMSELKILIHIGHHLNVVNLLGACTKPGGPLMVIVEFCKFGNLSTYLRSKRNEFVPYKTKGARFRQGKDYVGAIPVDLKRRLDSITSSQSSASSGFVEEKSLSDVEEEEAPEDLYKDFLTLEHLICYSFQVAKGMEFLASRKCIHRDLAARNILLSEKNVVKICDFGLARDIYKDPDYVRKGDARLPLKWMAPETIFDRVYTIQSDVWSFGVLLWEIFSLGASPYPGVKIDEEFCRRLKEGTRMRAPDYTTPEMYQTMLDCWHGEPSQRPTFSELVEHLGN
Method: In a 96-well plate, 5 nM/L of either the phosphorylated or nonphosphorylated form of the VEGFR-2 kinase domain was incubated with selected compounds (10-point titration ranging from 4 μM to 0.1 μM), 1 μM/L gastrin substrate, 20 mM/L Tris-HCl, pH 7.5, 10 mM/L MgCl2, 100 mM/L NaCl, 1.5 mM/L EGTA, 1 mM/L DTT, 0.2 mM/L sodium orthovanadate, and 20 μg/mL BSA for 30 min at 25 °C. ATP was added at a final concentration of 11.8 μM and incubated for 60 min at room temperature. Eu-labeled antiphosphotyrosine pT66 antibody (Perkin- Elmer) was then used for detection. The fluorescence at 665 nM was measured with a Wallac Victor plate reader using a time delay of 50 μs. The experiment was performed for three independent times and in triplicate each time.

HER-3 = biological target: T3, HER-3 (Homo sapiens, UniProt P21860); assay: HER-3 inhibitory assay; assay type: biochemical
T3 construct: HER-3 cytoplasmic domain (HER-3-CD, amino acids 665–1339); His6 (N); made in house
T3 sequence (P21860 665-1339): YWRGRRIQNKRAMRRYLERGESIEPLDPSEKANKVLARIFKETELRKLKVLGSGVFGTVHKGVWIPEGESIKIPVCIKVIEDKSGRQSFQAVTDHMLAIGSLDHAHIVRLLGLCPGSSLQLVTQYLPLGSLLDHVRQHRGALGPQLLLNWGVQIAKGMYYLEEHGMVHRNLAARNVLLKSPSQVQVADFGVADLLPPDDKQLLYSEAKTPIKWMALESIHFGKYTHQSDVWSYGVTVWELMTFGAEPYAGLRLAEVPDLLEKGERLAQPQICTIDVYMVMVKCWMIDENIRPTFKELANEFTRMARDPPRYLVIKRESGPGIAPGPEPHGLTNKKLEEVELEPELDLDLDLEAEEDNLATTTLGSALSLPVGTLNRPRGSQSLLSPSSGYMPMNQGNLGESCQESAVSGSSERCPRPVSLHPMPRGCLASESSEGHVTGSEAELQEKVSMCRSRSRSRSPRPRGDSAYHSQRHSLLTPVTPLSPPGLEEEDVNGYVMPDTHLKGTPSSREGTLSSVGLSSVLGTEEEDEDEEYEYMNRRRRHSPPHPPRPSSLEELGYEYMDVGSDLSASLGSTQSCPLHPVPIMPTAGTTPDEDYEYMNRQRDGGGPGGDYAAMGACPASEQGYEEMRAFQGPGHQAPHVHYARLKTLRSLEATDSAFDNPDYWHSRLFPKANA
Method: A sequence that encodes (His)6 was located at the 5′ upstream to the HER-2 and EGFR sequences. Sf-9 cells were infected for 3 days for protein expression. Sf-9 cell pellets were solubilized at 0 °C in a buffer at pH 7.4 containing 50 mM HEPES, 10 mM NaCl, 1% Triton, 10 μM ammonium molybdate, 100 μM sodium vanadate, 10 μg/mL aprotinin, 10 μg/mL leupeptin, 10 μg/mL pepstatin, and 16 μg/mL benzamidine, HCl for 20 min followed by 20 min centrifugation. Crude extract supernatant was passed through an equilibrated Ni–NTA superflow packed column and washed with 10 mM and then 100 mM imidazole to remove nonspecifically bound material. Histidine-tagged proteins were eluted with 250 and 500 mM imidazole and dialyzed against 50 mM NaCl, 20 mM HEPES, 10% glycerol and 1 μg/mL each of aprotinin, leupeptin, and pepstatin for 2 h. The entire purification procedure was performed at 4 °C or on ice.
A 1.8 Kb cDNA encoded for human HER-3 cytoplasmic domain (HER-3-CD, amino acids 665–1339) was applied to perform the experiment using the same method as EGFR/HER-2.

T1 sequence (Q05397 whole entry): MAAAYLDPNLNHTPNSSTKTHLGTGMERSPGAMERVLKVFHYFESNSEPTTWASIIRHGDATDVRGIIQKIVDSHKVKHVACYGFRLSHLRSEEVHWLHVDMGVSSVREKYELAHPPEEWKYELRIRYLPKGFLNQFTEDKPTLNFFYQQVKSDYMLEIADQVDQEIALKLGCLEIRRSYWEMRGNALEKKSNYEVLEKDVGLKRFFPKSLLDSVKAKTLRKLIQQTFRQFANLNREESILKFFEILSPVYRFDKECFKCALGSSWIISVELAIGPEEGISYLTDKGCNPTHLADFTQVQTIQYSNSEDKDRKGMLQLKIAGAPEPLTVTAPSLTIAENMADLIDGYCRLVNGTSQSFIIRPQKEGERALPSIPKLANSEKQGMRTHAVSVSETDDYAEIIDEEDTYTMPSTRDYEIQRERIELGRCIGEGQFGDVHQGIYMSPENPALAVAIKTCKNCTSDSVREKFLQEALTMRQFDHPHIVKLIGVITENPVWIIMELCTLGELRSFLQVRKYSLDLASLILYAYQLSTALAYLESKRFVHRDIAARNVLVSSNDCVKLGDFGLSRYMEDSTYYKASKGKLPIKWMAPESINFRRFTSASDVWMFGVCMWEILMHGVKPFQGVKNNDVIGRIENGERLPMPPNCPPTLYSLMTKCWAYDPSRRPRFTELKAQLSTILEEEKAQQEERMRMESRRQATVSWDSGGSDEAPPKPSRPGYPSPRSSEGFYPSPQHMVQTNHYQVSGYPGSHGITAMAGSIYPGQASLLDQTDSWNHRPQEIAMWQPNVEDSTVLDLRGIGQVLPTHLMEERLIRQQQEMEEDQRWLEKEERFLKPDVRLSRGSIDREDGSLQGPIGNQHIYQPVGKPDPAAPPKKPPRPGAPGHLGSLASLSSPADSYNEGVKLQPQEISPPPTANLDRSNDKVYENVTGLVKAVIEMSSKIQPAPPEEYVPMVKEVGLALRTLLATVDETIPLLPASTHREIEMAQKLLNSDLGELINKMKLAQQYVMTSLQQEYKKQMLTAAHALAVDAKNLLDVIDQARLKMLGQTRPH

**Q.** Which results are given for COc1ccc(C2CC(c3ccc4c(c3)OCCO4)=NN2C(N)=S)cc1OC (centres unmarked) [Compound C20, 3-(2,3-dihydrobenzo[b][1,4]dioxin-6-yl)-5-(3,4-dimethoxyphenyl)-4,5-dihydro-1H-pyrazole-1-carbothioamide]?
**A.** IC50 (FAK): 56.2 ± 5.48 µM; Kd [1]: 0.187 µM; p-HER-2 levels (p-HER-2): gradually trend of decrease; IC50 (VEGFR-2): 18.4 ± 1.74 µM; IC50 (HER-3): 5.2 ± 0.46 µM

Reference: publication PMC4897788, “Design, biological evaluation and 3D QSAR studies of novel dioxin-containing pyrazoline derivatives with thiourea skeleton as selective HER-2 inhibitors” (Scientific Reports, 2016)
